Paper PMC10751319, “Bacterial extracellular vesicles: towards realistic models for bacterial membranes in molecular interaction studies by surface plasmon resonance” (Frontiers in Molecular Biosciences, 2023)
Converted amounts (≈) assume the structure as drawn. Read-outs that look alike come from different tables or passages of the source. Non-standard residues stand in square brackets, D forms with d. Residues, ends and D or L forms follow the SMILES beside them.

Tests used:
[1] = tested on: bEVs from P. aeruginosa; assay: SPR interaction with immobilized bEVs; conditions: for koff rate constant determined by SPR / Calculated kon rate constant: P. aeruginosa bEVs; for koff rate constant determined by SPR: 400 s dissociation phase, Figueira et al. 2017 formalism, 25°C; for koff rate constant determined by SPR / Kd: three parallels; for Calculated kon rate constant: calculated from KD and koff (KD=koff/kon); for Kd: read-out: Dissociation constant KD determined by SPR, P. aeruginosa bEVs on L1 chip, Biacore T200, 25°C, 10 mM HEPES, 150 mM NaCl, steady-state fit
Text: (§2) By this, the dissociation constant KD and the disassociation rate koff were obtained. These constants allowed us to calculate kon rate, using Eq. 4.

[2] = tested on: bEVs from K. pneumoniae; assay: SPR interaction with immobilized bEVs; conditions: for koff rate constant determined by SPR / Calculated kon rate constant: K. pneumoniae bEVs; for koff rate constant determined by SPR: 400 s dissociation phase, Figueira et al. 2017 formalism, 25°C; for koff rate constant determined by SPR / Kd: three parallels; for Calculated kon rate constant: calculated from KD and koff (KD=koff/kon); for Kd: read-out: Dissociation constant KD determined by SPR, K. pneumoniae bEVs on L1 chip, Biacore T200, 25°C, 10 mM HEPES, 150 mM NaCl, steady-state fit
Text: as §2

[3] = tested on: bEVs from E. coli ΔtolA; conditions: for koff rate constant determined by SPR / Calculated kon rate constant: E. coli ΔtolA bEVs; for koff rate constant determined by SPR: 400 s dissociation phase, Figueira et al. 2017 formalism, 25°C; for koff rate constant determined by SPR / Kd: three parallels; for Calculated kon rate constant: calculated from KD and koff (KD=koff/kon); for Kd: read-out: Dissociation constant KD determined by SPR, E. coli ΔtolA bEVs on L1 chip, Biacore T200, 25°C, 10 mM HEPES, 150 mM NaCl, steady-state fit
Text: as §2

[4] = tested on: K. pneumoniae K47-25; assay type: cell-based, Klebsiella pneumoniae
Method: (§1) MIC for all test peptides was determined following EUCAST clinical standard ([Hasselmann, 2003]). Briefly, 3–4 colonies were picked by a cotton swab from freshly plated cultures on agar and resuspended in sterile saline solution. Turbidity of inoculum was adjusted to 0.5 McFarland standard units prior to ×100 dilution in Mueller-Hinton broth. Antimicrobial peptides were dissolved in the broth at the stock concentration of 512 μg/mL. […] Positive control of bacterial culture diluted with broth and negative control of blank broth were included for each bacterial strain. The MICs were determined after incubation of the plates at 37°C for 18 h and red as the concentration of antimicrobial peptide at the next to the last well where bacterial growth was detected.

[5] = tested on: A. baumannii K47-42; assay type: cell-based, Acinetobacter baumannii
Method: as §1

[6] = tested on: bEVs from A. baumannii; assay: SPR interaction with immobilized bEVs; conditions: for koff rate constant determined by SPR / Calculated kon rate constant: A. baumannii bEVs; for koff rate constant determined by SPR: 400 s dissociation phase, Figueira et al. 2017 formalism, 25°C; for koff rate constant determined by SPR / Kd: three parallels; for Calculated kon rate constant: calculated from KD and koff (KD=koff/kon); for Kd: read-out: Dissociation constant KD determined by SPR, A. baumannii bEVs on L1 chip, Biacore T200, 25°C, 10 mM HEPES, 150 mM NaCl, steady-state fit
Text: as §2

[7] = tested on: E. coli ΔtolA JW0729-KC; assay type: cell-based, Escherichia coli; conditions: Mueller-Hinton broth, 256 to 2 μg/mL, 37°C, 18 h
Method: as §1

[8] = tested on: liposomes prepared from E. coli ΔtolA lipid isolate; assay: SPR interaction with immobilized liposomes; conditions: for koff rate constant determined by SPR / Calculated kon rate constant: Liposomes from E. coli ΔtolA lipid isolate; for koff rate constant determined by SPR: 400 s dissociation phase, Figueira et al. 2017 formalism, 25°C; for koff rate constant determined by SPR / Kd: three parallels; for Calculated kon rate constant: calculated from KD and koff (KD=koff/kon); for Kd: read-out: Dissociation constant KD determined by SPR, Liposomes from E. coli ΔtolA lipid isolate on L1 chip, Biacore T200, 25°C, 10 mM HEPES, 150 mM NaCl, steady-state fit
Text: as §2

[9] = tested on: P. aeruginosa K34-7; assay type: cell-based, Pseudomonas aeruginosa
Method: as §1

[10] = strain not stated; ref Junkes et al., 2008; Bagheri, 2010; Gopal et al., 2012; Finger et al., 2015; Rainsford et al., 2022; Jakubec et al., 2023; cited from earlier work
[11] = P. aeruginosa K34-7, clinical multi-resistant, Mueller-Hinton broth, 256 to 2 μg/mL, 37°C, 18 h
[12] = K. pneumoniae K47-25, clinical multi-resistant, Mueller-Hinton broth, 256 to 2 μg/mL, 37°C, 18 h
[13] = A. baumannii K47-42, clinical multi-resistant, Mueller-Hinton broth, 256 to 2 μg/mL, 37°C, 18 h

## NCCCC[C@@H]1NC(=O)[C@H](CCCCN)NC(=O)[C@H](Cc2c[nH]c3ccccc23)NC(=O)[C@H](Cc2c[nH]c3ccccc23)NC(=O)[C@H](Cc2c[nH]c3ccccc23)NC(=O)[C@H](CCCCN)NC1=O [c-WWWKKK] (cyclo(WWWKKK))
[1]
  koff rate constant determined by SPR: 0.62 ± 0.07 s⁻¹
  Calculated kon rate constant: 6000 ± 1000 M⁻¹ s⁻¹
  Kd: 100 ± 4.1 µM
[2]
  koff rate constant determined by SPR: 0.37 ± 0.03 s⁻¹
  Calculated kon rate constant: 18000 ± 1000 M⁻¹ s⁻¹
  Kd: 21 ± 0.7 µM
[3]
  koff rate constant determined by SPR: 0.62 ± 0.05 s⁻¹
  Calculated kon rate constant: 11000 ± 1000 M⁻¹ s⁻¹
  Kd: 56.5 ± 1 µM
[4]; K47-25, 18 h
  MIC: > 256 µg/mL
[5]; K47-42, 18 h
  MIC: > 256 µg/mL
[6]
  koff rate constant determined by SPR: 0.63 ± 0.12 s⁻¹
  Calculated kon rate constant: 6000 ± 2000 M⁻¹ s⁻¹
  Kd: 100 ± 13.1 µM
[7]
  MIC: 4 µg/mL (≈ 4.24 µM)
[8]
  koff rate constant determined by SPR: 0.21 ± 0.01 s⁻¹
  Calculated kon rate constant: 7000 ± 1000 M⁻¹ s⁻¹
  Kd: 28.3 ± 4.2 µM

## CC(C)C[C@@H]1NC(=O)[C@@H](CCCNC(=N)N)NC(=O)[C@H](CCCCN)NC(=O)[C@H](CC(N)=O)NC(=O)[C@@H](Cc2c[nH]c3ccccc23)NC(=O)[C@H](Cc2c[nH]c3ccccc23)NC1=O [c-LWwNKr, reference compound] (cyclo(LW[dW]NK[dR]))
[9]; [11]
  MIC: > 256 µg/mL
[1]
  koff rate constant determined by SPR: 1.78 ± 0.54 s⁻¹
  Kd: 1040 ± 270 µM
[2]
  koff rate constant determined by SPR: 1.75 ± 0.55 s⁻¹
  Kd: 1080 ± 49 µM
[3]
  koff rate constant determined by SPR: 1.42 ± 0.27 s⁻¹
  Calculated kon rate constant: 3000 ± 1000 M⁻¹ s⁻¹
  Kd: 406 ± 38.1 µM
[4]; [12]
  MIC: > 256 µg/mL
[5]; [13]
  MIC: > 256 µg/mL
[6]
  koff rate constant determined by SPR: 1.72 ± 0.45 s⁻¹
  Kd: 858 ± 61.4 µM
[7]
  MIC: > 256 µg/mL
[10]
  MIC (without antimicrobial activity): > 256 µg/mL
[8]
  koff rate constant determined by SPR: 1.67 ± 0.45 s⁻¹
  Calculated kon rate constant: 2000 ± 1000 M⁻¹ s⁻¹
  Kd: 966 ± 170 µM

## N=C(N)NCCC[C@@H]1NC(=O)[C@H](Cc2c[nH]c3ccccc23)NC(=O)[C@H](CCCNC(=N)N)NC(=O)[C@H](Cc2c[nH]c3ccccc23)NC(=O)[C@H](CCCNC(=N)N)NC(=O)[C@H](Cc2c[nH]c3ccccc23)NC1=O [c-WRWRWR] (cyclo(WRWRWR))
[9]; K34-7, 18 h
  MIC: > 256 µg/mL
[4]; K47-25, 18 h
  MIC: > 256 µg/mL
[5]; K47-42, 18 h
  MIC: > 256 µg/mL
[7]
  MIC: 128 µg/mL (≈ 125 µM)

## N=C(N)NCCC[C@@H]1NC(=O)[C@H](CCCNC(=N)N)NC(=O)[C@H](Cc2c[nH]c3ccccc23)NC(=O)[C@H](Cc2c[nH]c3ccccc23)NC(=O)[C@H](Cc2c[nH]c3ccccc23)NC(=O)[C@H](CCCNC(=N)N)NC1=O [c-WWWRRR] (cyclo(WWWRRR))
[1]
  koff rate constant determined by SPR: 0.37 ± 0.04 s⁻¹
  Calculated kon rate constant: 6000 ± 1000 M⁻¹ s⁻¹
  Kd: 59 ± 2.6 µM
[2]
  koff rate constant determined by SPR: 0.28 ± 0.01 s⁻¹
  Calculated kon rate constant: 8000 ± 1000 M⁻¹ s⁻¹
  Kd: 35.8 ± 1.3 µM
[3]
  koff rate constant determined by SPR: 0.18 ± 0.02 s⁻¹
  Calculated kon rate constant: 7000 ± 1000 M⁻¹ s⁻¹
  Kd: 27 ± 1.6 µM
[4]; K47-25, 18 h
  MIC: 256 µg/mL (≈ 249 µM)
[5]; K47-42, 18 h
  MIC: > 256 µg/mL
[6]
  koff rate constant determined by SPR: 0.40 ± 0.06 s⁻¹
  Calculated kon rate constant: 8000 ± 2000 M⁻¹ s⁻¹
  Kd: 48.7 ± 2.7 µM
[7]
  MIC: 4 µg/mL (≈ 3.89 µM)
[8]
  koff rate constant determined by SPR: 0.51 ± 0.08 s⁻¹
  Calculated kon rate constant: 11000 ± 1000 M⁻¹ s⁻¹
  Kd: 47.8 ± 5.2 µM

## NCCCC[C@@H]1NC(=O)[C@H](Cc2c[nH]c3ccccc23)NC(=O)[C@H](CCCCN)NC(=O)[C@H](Cc2c[nH]c3ccccc23)NC(=O)[C@H](CCCCN)NC(=O)[C@H](Cc2c[nH]c3ccccc23)NC1=O [c-WKWKWK] (cyclo(WKWKWK))
[9]; [11]
  MIC: > 256 µg/mL
[1]
  koff rate constant determined by SPR: 1.52 ± 0.37 s⁻¹
  Calculated kon rate constant: 2000 ± 1000 M⁻¹ s⁻¹
  Kd: 749 ± 117 µM
[2]
  koff rate constant determined by SPR: 1.51 ± 0.54 s⁻¹
  Calculated kon rate constant: 2000 ± 1000 M⁻¹ s⁻¹
  Kd: 694 ± 37.3 µM
[3]
  koff rate constant determined by SPR: 1.42 ± 0.16 s⁻¹
  Calculated kon rate constant: 4000 ± 1000 M⁻¹ s⁻¹
  Kd: 381 ± 22.6 µM
[4]; [12]
  MIC: > 256 µg/mL
[5]; [13]
  MIC: > 256 µg/mL
[6]
  koff rate constant determined by SPR: 0.82 ± 0.11 s⁻¹
  Calculated kon rate constant: 2000 ± 1000 M⁻¹ s⁻¹
  Kd: 389 ± 32.5 µM
[7]
  MIC: 256 µg/mL (≈ 271 µM)
[8]
  koff rate constant determined by SPR: 0.95 ± 0.20 s⁻¹
  Calculated kon rate constant: 4000 ± 1000 M⁻¹ s⁻¹
  Kd: 244 ± 39.5 µM
